Laboratory results published in patent US20220395500A1, “SMALL MOLECULE ACTIVATORS OF INTERFERON REGULATORY FACTOR 3 AND METHODS OF USE THEREOF” (Neuralexo, Inc., priority 2020, published 2022).
Like-named read-outs stand apart in the source and are kept apart here.

Legend:
J774-Dual cytotoxicity = format: cell-based, mouse; conditions: mouse, J774-Dual cells, read-out: J774 cytotox CC50
Method in brief: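 Orthogonal cross-species screen in mouse J774-Dual cells using 8-point dose-response format. Cytotoxicity measured in-plate by CellTiter-Glo luminescence, giving CC50 alongside EC50 and ISRE:NFκB ratios.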

[1] = test system: NF-κB-SEAP reporter in J774-Dual cells; assay: J774-Dual NF-κB-SEAP reporter assay; format: cell-based, mouse; conditions: read-out: J774 NFkB EC50
Description: First, optimal assay conditions and assay quality in 384-well format were determined. As mentioned, the mouse macrophage J774 cell line (J774-Dual, InvivoGen) stably transfected with the same inducible reporters described above (e.g., IRF-Lucia luciferase and NF-κB-SEAP) was used. The responsiveness of the J774-Dual cell line was investigated in an array of assay conditions to obtain sensitive and reproducible results for the activation of the IRF and NF-κB reporters. An optimal plating density and conditions for these cells was established for these cells in a 384-well format. Assay work-flow is similar to that discussed above for the THP1-Dual assay without a need for cell differentiation. Thus, cells are seeded directly in growth medium and incubated at 37° C. in a 5% C02 incubator for 24 hours prior to the programmed treatments being added as described herein.
The primary high throughput screen used the HTS platform of human THP1 monocyte cells containing the IRF-Lucia luciferase and NFκB-SEAP (secreted embryonic alkaline phosphatase) dual reporter (THP1-Dual, Invivogen), enabling the simultaneous study of the IRF and NFκB signaling pathways respectively. As discussed, the Lucia luciferase reporter gene is under the control of an ISG54 (interferon-stimulated gene) minimal promoter in conjunction with five interferon-stimulated response elements (ISRE). The SEAP gene is driven by an IFNβ minimal promoter fused to five copies of the NFκB consensus transcriptional response element and three copies of the c-Rel binding site. Both IRF-Lucia luciferase and NFκB-SEAP reporter proteins are secreted and readily measurable in the cell culture supernatant when using QUANTI-Luc™ and QUANTI-Blue™ detection reagents, respectively. Identified “hits” were confirmed in a secondary screen with an 8-point dose response curve. Hits were further screened for activity in the mouse using the mouse J774 macrophage-like cell line containing the identical reporter constructs (J774-Dual, Invivogen).
The OTRADI Small Molecule Library of approximately 246,000 diverse compounds (see below for description) was screened using the THP1-Dual based HTS platform described above. All transfer steps in the screen are fully automated, thus reducing variability. Primary screening included a single data point or dose for each molecule. After data normalization was applied for each assay run, “hit” selection was performed on the plates that pass the quality control (QC) criterion. Hits were defined as samples having values above the activity cutoff determined based on noise level of the assay to reduce false positive rates. In the pilot study discussed above this activity value was >3σ above the ISRE mean with the added criteria of NFκB activation being lower than […] from the mean to identify IRF selective compounds. The ratio of ISRE:NFκB activity was also calculated as a selectivity index for prioritizing hit selection. Primary hits underwent secondary screening to determine the 50% effective concentration (EC50) and 50% cytotoxic concentration (CC50) of these agents using an 8-point dose-response curve in the human THP1-Dual cells. Cytotoxicity was measured in the plate using Cell Titer Glo (Promega). Identified candidate compounds were further screened (orthogonal screen) for cross species activity in the validated mouse J774-Dual assay using an 8-point dose-response format to determine EC50 and CC50 values as well as ISRE:NFκB ratios. A general process flow for the experimental design laid out above is depicted at FIG. 12.

[2] = THP1-Dual cytotoxicity (Cell Titer Glo, ATP); format: cell-based, human; conditions: human, THP1-Dual cells, read-out: Thp1 cytotox CC50
Method in brief: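 Human THP1-Dual cells were treated across an 8-point dose-response range. Cytotoxicity was measured in-plate by CellTiter-Glo luminescence, which quantifies ATP as a marker of metabolically active cells, and CC50 was taken as the 50% cytotoxic concentration.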

[3] = Mus musculus, J774, Mouse Reporter Cell Line, 8-point dose response
[4] = Mus musculus, J774, Mouse Reporter Cell Line J774

| SMILES | CC50 (J774-Dual cytotoxicity; Mouse Reporter Cell Line) | EC50 [1, 3] | CC50 ([2]; Human Reporter Cell Line) | CC50 (J774-Dual cytotoxicity; Mouse Reporter Cell Line J774) | EC50 [1, 4] | CC50 ([2]; Human Reporter Cell Line THP1) | EC50 ([1]; Mouse Reporter Cell Line J774) |
| --- | --- | --- | --- | --- | --- | --- | --- |
| O=C(Nc1ccc(N2CCN(C(=O)c3cccs3)CC2)cc1)c1ccc(Cl)c2ccccc12 [NA13] | > 25 µM | ~2.86 µM | > 25 µM |  |  |  |  |
| CCOc1cccc(COc2ccc(C(=O)Nc3ccc(N4CCN(C(=O)c5cccs5)CC4)cc3)cc2)c1 [NA42, 4-((3-ethoxybenzyl)oxy)-N-(4-(4-(thiophene-2-carbonyl)piperazin-1-yl)phenyl)benzamide] | 37.2 µM | 5.36 µM | 121 µM |  |  |  |  |
| O=C(Nc1ccc(N2CCN(C(=O)c3ccsc3)CC2)cc1)c1ccc(OCc2ccccc2)nc1 [NA-1] | 13.7 µM | ~3.19 µM | 10.5 µM |  |  |  |  |
| O=C(Nc1ccc(N2CCN(C(=O)c3cccs3)CC2)cc1)c1ccc(Br)cc1 [NA-14] | > 25 µM |  | > 25 µM |  |  |  |  |
| Cc1c(Br)ccc(C(=O)Nc2ccc(N3CCN(C(=O)c4cccs4)CC3)cc2)c1C [NA-16] | > 25 µM | 12.9 µM | > 25 µM |  |  |  |  |
| O=C(Nc1ccc(N2CCN(C(=O)c3cccs3)CC2)cc1)c1sc2cc(Cl)ccc2c1Cl [NA-20] | 43.6 µM | ~4.75 µM | 11.8 µM |  |  |  |  |
| O=C(Nc1ccc(N2CCN(C(=O)c3cccs3)CC2)cc1)c1cccc2c(Br)cccc12 [NA-21, 5-bromo-N-{4-[4-(2-thienylcarbonyl)-1-piperazinyl]phenyl}-1-naphthamide] | 63.8 µM | 1.05 µM | 39.4 µM |  |  |  |  |
| O=C(Nc1ccc(N2CCN(C(=O)c3cccs3)CC2)cc1)c1ccc(OCc2ccc(F)c(F)c2F)cc1 [NA-23] | 22.1 µM | ~2.53 µM | 12.7 µM |  |  |  |  |
| COc1cccc(COc2ccc(C(=O)Nc3ccc(N4CCN(C(=O)c5cccs5)CC4)cc3)cc2)c1 [NA-24, 4-((3-methoxybenzyl)oxy)-N-(4-(4-(thiophene-2-carbonyl)piperazin-1-yl)phenyl)benzamide] | 36.2 µM |  | 16.8 µM |  |  |  |  |
| Cc1ccc(COc2ccc(C(=O)Nc3ccc(N4CCN(C(=O)c5cccs5)CC4)cc3)cc2)cc1 [NA-25] | > 25 µM | 8.15 µM | 35.5 µM |  |  |  |  |
| CCOc1ccc(C(=O)Nc2ccc(N3CCN(C(=O)c4cccs4)CC3)cc2)cc1Br [NA-30] | 40.7 µM |  | 18.8 µM |  |  |  |  |
| O=C(Nc1ccc(N2CCN(C(=O)c3cccs3)CC2)cc1)c1ccc(-c2cc3ccccc3oc2=O)cc1 [NA-32] | 67.2 µM |  | 36.6 µM |  |  |  |  |
| O=C(Nc1ccc(N2CCN(C(=O)c3cccs3)CC2)cc1)c1ccc(OCc2cccc(Cl)c2)cc1 [NA-33] | 25.5 µM | 3.81 µM | 9.58 µM |  |  |  |  |
| O=C(Nc1ccc(N2CCN(C(=O)c3cccs3)CC2)cc1)c1ccc(-c2ccncc2)cc1 [NA-38] | > 25 µM |  | > 25 µM |  |  |  |  |
| O=C(Nc1ccc(N2CCN(C(=O)c3cccs3)CC2)cc1)c1ccc(-c2ccccc2)cn1 [NA-39] | > 25 µM |  | > 25 µM |  |  |  |  |
| O=C(Nc1ccc(N2CCN(C(=O)c3cccs3)CC2)cc1)c1ccc(-c2ccccc2)nc1 [NA-41] | > 25 µM |  | > 25 µM |  |  |  |  |
| COc1ccc(C(=O)Nc2ccc(OCc3ccccc3)cc2)cc1[N+](=O)[O-] [NA-44] | > 25 µM | 7.65 µM | 50.3 µM |  |  |  |  |
| O=C(Nc1ccc(N2CCN(C(=O)c3cccs3)CC2)cc1)c1ccc(OCc2ccccc2)nc1 [NA-59] | 36.1 µM | 4.37 µM | 16 µM |  |  |  |  |

| SMILES | CC50 (J774-Dual cytotoxicity; Mouse Reporter Cell Line) | EC50 [1, 3] | CC50 ([2]; Human Reporter Cell Line) | CC50 (J774-Dual cytotoxicity; Mouse Reporter Cell Line J774) | EC50 [1, 4] | CC50 ([2]; Human Reporter Cell Line THP1) | EC50 ([1]; Mouse Reporter Cell Line J774) |
| --- | --- | --- | --- | --- | --- | --- | --- |
| Cc1ccc(NC(=O)c2cc(NC(=O)c3ccccc3)ccc2N2CCOCC2)cc1Cl [NB-1] |  |  |  | > 111 µM | 19.9 µM | 32.8 µM |  |
| Cc1ccc(NC(=O)c2cc(NC(=O)Cc3ccccc3)ccc2N2CCOCC2)cc1Cl [NB-3] |  |  |  | > 25 µM |  | 52.5 µM |  |
| Cc1ccc(NC(=O)c2cc(NC(=O)c3cccs3)ccc2N2CCOCC2)cc1Cl [NB-8] |  |  |  | > 25 µM |  | > 25 µM |  |
| Cc1ccc(NC(=O)c2cc(NC(=O)c3cccs3)ccc2N2CCOCC2)cc1 [NB-17] |  |  |  | > 25 µM | 8.79 µM | > 25 µM |  |
| O=C(Nc1ccc(N2CCOCC2)c(C(=O)Nc2ccc(OCc3ccccc3)cc2)c1)c1cccs1 [NB-18] |  |  |  | > 25 µM |  | > 25 µM |  |
| Cc1ccc(NC(=O)c2cc(NC(=O)c3cccs3)ccc2N2CCOCC2)cc1Br [NB-23] |  |  |  | 36.9 µM | 9.53 µM | 30.5 µM |  |
| Cc1cc(NC(=O)c2sc3cc(Cl)ccc3c2Cl)ccc1NC(=O)c1ccco1 [NC-2] | > 25 µM |  | > 25 µM |  |  |  |  |
| COc1ccc(C(=O)Nc2cc(-c3nc4cc(C)c(C)cc4o3)ccc2C)cc1[N+](=O)[O-] [ND13, N-(5-(5,6-dimethylbenzo[d]oxazol-2-yl)-2-methylphenyl)-4-methoxy-3-nitrobenzamide] |  |  |  | 4.32 µM | 1.32 µM | 8.76 µM |  |
| COc1ccc(C(=O)Nc2cc(-c3nc4ccccc4s3)ccc2C)cc1[N+](=O)[O-] [ND52, N-[5-(1,3-benzothiazol-2-yl)-2-methylphenyl]-4-methoxy-3-nitrobenzamide] |  |  |  |  | 7.53 µM | 27.6 µM |  |
| COc1ccc(C(=O)Nc2nc(-c3cc4ccccc4oc3=O)cs2)cc1 [ND-1] |  |  |  | > 25 µM | 8.75 µM | > 25 µM |  |
| COc1ccc(C(=O)Nc2cc(-c3nc4cc(C(C)C)ccc4o3)ccc2C)cc1[N+](=O)[O-] [ND-2] |  |  |  | 65.8 µM | 11.4 µM | 27.6 µM |  |
| CC(C)CC(=O)Nc1ccc2oc(-c3cccc(I)c3)nc2c1 [ND-5] |  |  |  | > 25 µM |  | > 25 µM |  |
| O=C(Cc1ccc(Cl)cc1)Nc1cccc(-c2nnc(-c3ccco3)o2)c1 [ND-7] |  |  |  | > 25 µM | 30.6 µM | > 25 µM |  |
| COc1ccc(-c2nc3cc(C(C)C)ccc3o2)cc1NC(=O)c1ccc(C)c([N+](=O)[O-])c1 [ND-16] |  |  |  | > 25 µM | 6.75 µM | 32.7 µM |  |
| COc1ccc(C(=O)Nc2cc(-c3nc4ccccc4s3)ccc2C)cc1[N+](=O)[O-] [ND-38] |  |  |  |  |  |  | 12 µM |
| Cc1ccc(-c2nc3ccccc3s2)cc1NC(=O)c1cccc(Cl)c1 [ND-80] |  |  |  | > 25 µM |  | 33.9 µM |  |
| ClCCCOc1ccc(-c2nc3cc(OCCCN4CCCC4)ccc3o2)cc1 [ND-94] |  |  |  | > 25 µM |  | > 25 µM |  |
| COCOc1ccc2oc(-c3ccc(C)c([N+](=O)[O-])c3)nc2c1 [ND-96] |  |  |  | > 25 µM |  | 30.1 µM |  |
